Data: article PMC5503262, “Solution conformations of Zika NS2B-NS3pro and its inhibition by natural products from edible plants” (PLoS ONE, 2017)
“And” between values parts separate entries of the source, which are not always exact repeats. Equal entries are not always repeated. “Also recorded” adds a separate entry of the source. Where two headings read alike, the source gives them in different places.

How the values were obtained:
[1] = target: T1, Zika NS2B-NS3pro (unlinked complex) (Zika virus, UniProt A0A024B7W1); assay: Inhibition of unlinked Zika NS2B-NS3pro, fluorogenic substrate Bz-nKRR-AMC; type: biochemical; settings: for IC50 / Inhibition at 500 μM: Bz-nKRR-AMC 250 μM; for Inhibition at 500 μM: initial screening, compound 500 μM, protease 50 nM; for inhibitory activity (in words): compound concentration up to 500 μM
T1 construct: DNA fragments encoding the isolated NS3 (14–185) and NS2B (48–100) with the transmembrane regions removed; His-tag (cleaved yes); made in house; host or cells: Escherichia coli BL21 (DE3) Star
T1 sequence (A0A024B7W1 1420-1472): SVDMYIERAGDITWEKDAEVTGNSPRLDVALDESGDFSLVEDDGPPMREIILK
T1 sequence (A0A024B7W1 1516-1687): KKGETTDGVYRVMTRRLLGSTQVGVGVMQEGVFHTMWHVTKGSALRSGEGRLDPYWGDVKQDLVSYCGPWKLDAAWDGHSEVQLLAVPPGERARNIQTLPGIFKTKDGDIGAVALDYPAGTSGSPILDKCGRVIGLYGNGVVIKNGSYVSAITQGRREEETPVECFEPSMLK
Experimental: Due to the urgency to fight ZIKV infection, we attempted to screen the inhibitors of Zika NS2B-NS3pro from natural products rich in edible plants. To better reflect the situation in vivo, here we selected the unlinked Zika NS2B-NS3pro complex for screening. However as most natural products are largely insoluble in aqueous buffers, we have assessed effects of DMSO and glycerol on the conformations (Fig 1E and 1F) as well as on catalytic parameters (Table 1). Consequently, 50 mM Tris buffer at pH 8.5 + 20% Glycerol was utilized as the screening buffer as it could dissolve all natural products in the present study but has no significant effect on the conformation of Zika NS2B-NS3pro (Fig 1F).
To allow comparison with the NS2B-NS3pro complexes of four Dengue serotypes (17), we selected three fluorophore-tagged substrates previously used (17): namely Bz-Nle-Lys-Arg-Arg-AMC, Boc-Gly-Arg-Arg-AMC and Boc-Gly-Lys-Arg-AMC (Bachem AG, Bubendorf), which were dissolved in dimethyl sulfoxide for preparing stock solutions (100 mM). All enzymatic experiments were performed in triplicate and data are presented as mean ± SD, while IC50, Km and Ki were obtained by fitting with GraphPad Prism 7.0 [61].
All natural products were purchased from Sigma-Aldrich, which are all HPLC purified. After optimization of buffer conditions, here, we selected 50 mM Tris-HCl buffer at pH 8.5 in the presence of 20% glycerol which could dissolve all natural products. Briefly, for the initial screening, the Zika protease at 50 nM was preincubated for 30 min with different compounds at final concentrations of 5 and 500 μM dissolved in 1 μl DMSO, followed by adding Bz-nKRR-AMC to 250 μM to initiate reaction. Only the compounds showing significant inhibitions at both concentrations were subjected to further determination of IC50 and Ki.
For Ki determination, the assay was performed with different final concentrations of the inhibitors and substrate. Briefly, the Zika protease at 50 nM was preincubated with the inhibitor at different concentrations for 30 min at 37°C. Subsequently, the reaction was initiated by addition of the corresponding concentration series of the substrate. All measurements were performed in triplicate and data are presented as mean ± SD. The Ki was obtained by fitting in the non-competitive inhibition mode with GraphPad Prism 7.0, with an equation: Vmaxinh = Vmax/(1+I/Ki), while I is the concentration of inhibitor [61].

linked Zika NS2B-NS3pro = settings: linked enzyme, assay buffer pH 7; cited from earlier work
Dengue-2 NS2B-NS3pro = target: Dengue-2 NS2B-NS3pro; set-up: method as in PMID 25564380; settings: allosteric inhibition, previously characterized; cited from earlier work
[2] = IC50, protease 50 nM preincubated 30 min at 37°C, 50 mM Tris-HCl pH 8.5 + 20% glycerol, mean ± SD, triplicate
[3] = Ki, non-competitive fit, protease 50 nM preincubated 30 min at 37°C, 50 mM Tris-HCl pH 8.5 + 20% glycerol, mean ± SD, triplicate
[4] = 50 mM Tris-HCl pH 8.5 + 20% glycerol
[5] = protease 50 nM preincubated 30 min at 37°C, 50 mM Tris-HCl pH 8.5 + 20% glycerol, mean ± SD, triplicate, read-out: IC50
[6] = non-competitive fit, protease 50 nM preincubated 30 min at 37°C, 50 mM Tris-HCl pH 8.5 + 20% glycerol, mean ± SD, triplicate, read-out: Ki

Structure (SMILES) | IC50 [1, 2] [µM] | Inhibition at 500 μM [1, 4] | IC50 [1, 5] | inhibitory activity (in words) [1] | Ki [1, 6] | also measured
O=c1cc(-c2ccc(O)cc2)oc2cc(O)cc(O)c12 [Apigenin] | 56.3 ± 0.9 | Yes | 56.3 µM |  |  | Ki [1, 3]: 34 µM
Oc1cc(O)c2c(c1)O[C@H](c1ccc(O)c(O)c1)[C@@H](O)C2 [Catechin] |  | No |  | inactive |  | inhibitory activity (in words) ([1]; listed as Catechine): no inhibitory activity was detected
COc1cc(/C=C/C(=O)CC(=O)/C=C/c2ccc(O)c(OC)c2)ccc1O [Curcumin] |  | Yes | 3.45 µM and 3.5 µM |  | 2.61 µM and 2.6 µM | 
O=c1c(-c2ccc(O)cc2)coc2cc(O)ccc12 [Daidzein] |  | No |  | no inhibitory activity was detected; also recorded: inactive |  | 
COc1cc(-c2oc3cc(O)cc(O)c3c(=O)c2O)ccc1O [Isorhamnetin] | 15.5 | Yes |  |  |  | Ki [1, 3]: 6.22 µM and 6.2 µM
O=c1cc(-c2ccc(O)c(O)c2)oc2cc(O)cc(O)c12 [Luteolin] |  | Yes | 2.7 ± 0.3 µM |  | 1.4 ± 0.1 µM | 
O=c1c(O)c(-c2cc(O)c(O)c(O)c2)oc2cc(O)cc(O)c12 [Myricetin] | 1.26 | Yes | 1.3 ± 0.1 µM |  | 0.8 ± 0.1 µM | Ki (linked Zika NS2B-NS3pro): 8.9 µM; Ki ([1]; Ki, non-competitive mode, unlinked enzyme, pH 8.5): 0.77 µM; Ki (Dengue-2 NS2B-NS3pro): 4.7 µM
O=c1c(O)c(-c2ccc(O)c(O)c2)oc2cc(O)cc(O)c12 [Quercetin] |  | Yes | 2.42 µM and 2.4 µM |  | 1.12 µM and 1.1 µM | Ki (Dengue-2 NS2B-NS3pro): 20.7 µM
Oc1ccc(/C=C/c2cc(O)cc(O)c2)cc1 [Resveratrol] |  | No |  | no inhibitory effect was detected; also recorded: no detectable inhibitory activity |  | 
